Experimental data as given in article PMC9574863 (Journal of Medicinal Chemistry, 2022).
Where two headings read alike, the source gives them in different places.

Assays:
[1] = pH 7; cited from earlier work
U937 cells [2] = details: read-out: apoptosis EC50 U937 (C.L. 95%); U937, annexin V, 3 days
U937 cells [3] = details: read-out: differentiation EC50 U937 (C.L. 95%); U937, CD14/CD11b expression
Source text: The differentiation pathway was monitored by analyzing the expression of CD11b (APC-conjugated BD Bioscience San Jose, CA, USA) or CD14 (APC-conjugated Beckam Coulter CA, USA) via flow cytometry analysis. […] Samples were acquired on an FACSVerse (BD-Biosciences San Jose CA) and dead cells were excluded from the analyses, according to the use of propidium iodide (Sigma-Aldrich, Milan, Italy). Data were processed using Kaluza software version 1.2 (Beckman Coulter Fullerton, CA).

Structure (SMILES)	solubility [1]	EC50 (U937 cells [2])	EC50 (U937 cells [3])
CCn1c(CO)nn(-c2cc(O[C@@H](C)C(F)(F)F)c(C(=O)Nc3c(F)cccc3Cl)cc2F)c1=O [BAY2402234]	< 4 µM		
Cc1c(-c2ccc(-c3ccccc3F)cc2)nc2ccc(F)cc2c1C(=O)O [Brequinar]		262 nM	214 nM
